Columns and labels:
human sperm [1] = assay: Sperm chemotaxis assay with phage displaying the peptide (two-chamber apparatus); format: cell-based; conditions: 37° C. for 1 hr; for sperm count in the lower chamber: one experiment done in triplicate, phage displaying peptide
Protocol: (§1) Preparation of sperm: One tube (0.5 ml) of a sperm sample was thawed at room temperature for 15-20 mm. As soon as the sperm was thawed, 0.5 ml of Hams-F10 medium was added, and the sample transferred to a 5 ml culture tube. The sperm was diluted to 4 ml with Hams-F10 medium, mixed well, and centrifuged at 2000 rpm for 5 mm. The supernatant was decanted and the cells resuspended in 4 ml of fresh Hams-F 10 medium. The centrifugation was repeated and the clean sperm pellet resuspended in 1 ml Hams-F10 medium. A 50 μl sample aliquot was used per each assay condition.
Assay: The chambers of the assay apparatus were assembled with 8.iM membranes pre-wetted with Hams-F10 medium. A sample of phage containing a specific peptide sequence or a control peptide sequence was diluted with Hams-F10 medium to give a 100 ml phage containing solution which was placed in the bottom chamber of the apparatus. A sperm sample having at least 1×10^6 sperm was added to the upper chamber. After incubation 37° C. for 1 hr, the sample in the bottom chamber was collected into microfuge tubes and centrifuged at 6000 rpm for 5 mm. The supernatant was removed and the pellet resuspended in suitable volume to be counted in a hemocytometer.
Results: Various concentrations of phage containing the Husap peptide (TMGFTAPRFPHY; SEQ. ID. NO. 1), phage containing a control sequence (KSLSRHDHIHHH; SEQ. ID. NO. 20) or buffer without phage were used in the assays. Sperm counts 2-15 fold greater in the well containing the Husap peptide displaying phage were consistently obtained when compared to control phage or buffer-alone chambers. For example, in one experiment done in triplicate, the sperm count in the lower chamber was 76×10^4 for the Husap peptide compared to 5×10^4 for the control peptide and 21×10^4 for buffer alone.

human sperm [2] = assay: Effect of varying concentrations of Husap peptide on chemotaxis of human sperm; format: cell-based; conditions: 2.8×10^6 sperm in upper chamber, 5 micron membrane, 37° C. 1 h
Protocol: as §1
The effect of varying concentrations of the Husap peptide on chemotaxis of human sperm was also determined. Sperm at a concentration of 2.8×10^6 were added to the upper chamber. The peptide concentration in the lower chamber was varied from 0 μl to […] of peptide. Sperm were separated from the lower chamber by a 5 micron membrane filter. The chambers were incubated at 37° C. for 1 h. At the end of the incubation, sperm were collected from the lower chamber and counted in a hemocytometer. The experiment was performed several times with varying peptide concentrations and with 5 and 8 micron membranes.

| Substance | sperm count in the lower chamber (human sperm [1]) | Sperm Count in Lower Chamber (human sperm [2]; HusaP concentration 10 uM) | Sperm Count in Lower Chamber (human sperm [2]; HusaP concentration 20 uM) | Sperm Count in Lower Chamber (human sperm [2]; HusaP concentration 100 uM) | Sperm counts, fold greater compared to control phage or buffer-alone chambers (human sperm [1]; phage displaying peptide in bottom chamber, various phage concentrations) |
| --- | --- | --- | --- | --- | --- |
| KSLSRHDHIHHH [control peptide, reference compound] | 5×10^4 |  |  |  |  |
| NH2-Thr-Met-Gly-Phe-Thr-Ala-Pro-Arg-Phe-Pro-His-Tyr-COOH (H-TMGFTAPRFPHY-OH; listed as Homo sapiens) [Husap peptide, human sperm chemotactic peptide …] | 76×10^4 | 6 × 10^4 | 12 × 10^4 | 52 × 10^4 | 2-15 fold |
